# Measured values: US9884089B2, “BPI and its congeners as radiation mitigators and radiation protectors” (Dana-Farber Cancer Institute, Inc., priority 2011, dated 2018)
# Marks after values point to notes of the source that are not given here.
# Columns and labels:
# [1] = system: BALB/c mice after 7 Gy TBI; test: Peripheral blood counts after TBI (CBC, Hemavet); assay type: in vivo, mouse; conditions: median; for WBC: treatment started 24 h after irradiation
# Protocol: Male BALB/c mice (Stock #028, Charles River, Wilmington, Mass.) were acclimated prior to irradiation at age 12 weeks. Studies were conducted in accordance with Dana-Farber Cancer Institute's ACUC-approved policies and protocols. Mice were placed into a Rad Disk™ rodent microisolation irradiation cage (Braintree Scientific, Braintree, Mass.) and administered a single 7 Gy dose by a Gammacell® 40Exactor (Best Theratronics, Ottawa, Ontario) cesium source irradiator. […] Moribund mice were euthanized via CO, asphyxiation. At scheduled time points, mice were sacrificed humanely via isoflurane anesthetic overdose (IsoFlo®-Abbott Labs, Abbott Park, Ill.).
# CBCs were performed on a Hemavet 950 FS hematology analyzer (Drew Scientific, Waterbury, Conn.) with EDTA-anticoagulated (Becton-Dickinson, Franklin Lakes, N.J.) cardiac blood. Plasma was obtained by mixing blood with pyrogen-free heparin (APP Pharmaceutical, Schaumburg, Ill.), in pyrogen-free Eppendorf tubes (USA Scientific) and centrifugation at 14,000 rpm for 10 minutes. Single use aliquots were stored at −80° C. In some studies, femurs and tibiae from one leg/animal were dissected, fixed for 24 hours in 10% neutral buffered formalin (Fisher Scientific, Pittsburgh, Pa.), and processed, including coronal sectioning and hematoxylin and eosin (H&E) staining (Specialized Histopathology Services-Longwood, Boston, Mass.). […] Red blood cells were lysed with hypotonic lysing buffer (Sigma).
# [2] = system: BALB/c mice after 7 Gy TBI; test: In vivo radiation mitigation: survival after 7 Gy TBI; set-up: species or system mouse; conditions: 7 Gy TBI (LD95/30), treatment initiated 24 hours after irradiation; Mantel-Cox log-rank
# Protocol: (§1) Male BALB/c mice (Stock #028, Charles River, Wilmington, Mass.) were acclimated prior to irradiation at age 12 weeks. Studies were conducted in accordance with Dana-Farber Cancer Institute's ACUC-approved policies and protocols. Mice were placed into a Rad Disk™ rodent microisolation irradiation cage (Braintree Scientific, Braintree, Mass.) and administered a single 7 Gy dose by a Gammacell® 40Exactor (Best Theratronics, Ottawa, Ontario) cesium source irradiator. […]
# For the human HSCT study, samples with undetectable analytes were assigned a value at half the lower limit of detection. For ANC, PLT, BPI, TLR4 and IL-6, data were analyzed after logarithmic transformation, as this yielded distributions that were more approximately normal. […] Comparisons between subjects with or without fever were evaluated using the Mann-Whitney test. When assessing correlations between different parameters, within-subject correlations were calculated using the Spearman correlation coefficient and data from multiple time-points. The calculated coefficients were averaged over the different subjects and significance tested with the signed rank test. […] Two tailed t tests (Mann-Whitney) are performed throughout except for citrulline data in which the data were analyzed by 1-sample t test as compared to theoretical mean of 100% and for hematologic analyses (Table 1) in which unpaired t tests were performed. […]
# [3] = system: BM of BALB/c mice after 7 Gy TBI; test: Femoral BM cellularity by histopathology; assay type: in vivo, mouse; conditions: D19 after 7 Gy
# Protocol: as §1
# A Board-certified hematopathologist (JK) assessed femoral BM cellularity on decalcified, formalin fixed, H&E stained paraffin-fixed sections using an Olympus BX51 microscope and an Olympus DP71 camera with DP Capture software. For each animal, 2 slides with 2 fields/slide were scored for the percent of BM space occupied by hematopoietic cells. […]
structure (smiles),measurement,setting,value
"CCN1CCN(c2cc3c(cc2F)c(=O)c(C(=O)O)cn3C2CC2)CC1 [ENR, enrofloxacin]",WBC,[1]; D15 after 7 Gy TBI,0.24 ▴ K/μL
same,Hb,[1]; D15 after 7 Gy TBI,8.80 ▴ ▪ g/dL
same,Monocytes,[1]; D15 after 7 Gy TBI,0 ▴ ● K/μL
same,Neutrophils,[1]; D15 after 7 Gy TBI,0 ▴ ● K/μL
same,PLT,[1]; D15 after 7 Gy TBI,196 ▴ K/μL
same,WBC,[1]; D19 after 7 Gy TBI,0.21 ▴ K/μL
same,Hb,[1]; D19 after 7 Gy TBI,8.35 ▴ ▪ g/dL
same,Monocytes,[1]; D19 after 7 Gy TBI,0 ▴ ● ▪ K/μL
same,Neutrophils,[1]; D19 after 7 Gy TBI,0 ▴ ● ▪ K/μL
same,PLT,[1]; D19 after 7 Gy TBI,250.5 ▴ K/μL
same,WBC,[1]; D30 after 7 Gy TBI,1.84 ▴ ● K/μL
same,Hb,[1]; D30 after 7 Gy TBI,13.1 ▴ g/dL
same,Monocytes,[1]; D30 after 7 Gy TBI,0.14 ● K/μL
same,Neutrophils,[1]; D30 after 7 Gy TBI,0.55 ● K/μL
same,PLT,[1]; D30 after 7 Gy TBI,713.5 ▴ K/μL
same,D30 survival,[2],some survival benefit
same,BM cellularity,[3],< 5%
